Measurements taken from patent US12060388B2, “Cell-penetrating peptides and methods of use thereof” (priority 2018, dated 2024).

Columns and labels:
HPV16 pseudovirus (PsV) = assay: Peptide inhibition of HPV16 PsV infection of HeLa-S3 cells, flow cytometry for HcRed; type: cell-based
Source text: FIG. 18A (top) depicts sequences of L2 peptides. […] Amino acid substitutions in the CPP or RBS mutant peptides are shown in orange and blue, respectively. Bottom: RBS and flanking sequences of indicated HPV L2 proteins or DMT1-II. FIG. 18B depicts an inhibitory dose-response curve for P16/16 peptide. 5×10^4 HeLa-S3 in 24-well plates were pretreated with various concentrations of P16/16 for one hour prior to infection with HPV pseudovirus (PsV) at multiplicity of infection (MOI) of 1. Peptide was left in the medium for the duration of the experiment. Cells were assessed by flow cytometry to determine the fraction of cells expressing reporter protein HcRed at 48 hours post-infection (h.p.i.). […] FIG. 18C depicts 5×10^4 HeLa-S3 in 24-well plates were pretreated with 14 μM of the indicated peptide for one hour, followed by infection with HPV PSV at MOI of one. Peptides were left in the medium for the duration of the experiment. As a control, cells were incubated with the solution used to dissolve peptide. Forty-eight h.p.i., cells were assessed by flow cytometry to determine fraction of cells expressing reporter protein HcRed. […] For the comparison of P16/16 to P16/6A, P16/3R, and PDM/16 for HPV16 PsV, **, p<0.01; ***, p<0.001. […] FIG. 18D depicts inhibition of HPV infection of HaCaT cells. HaCaT keratinocytes were infected at MOI of 1 with HPV16 PsV in the presence and absence of 14 μM P16/16, and infectivity was assessed 48 h.p.i. by flow cytometry for HcRed fluorescence. FIG. 18E depicts inhibition of authentic HPV16. HeLa cells were infected with HPV16 harvested from organotypic cultures of human keratinocytes or with HPV16 PsV in the presence (grey bars) or absence (black bars) of P16/16. Successful infection by HPV16 and HPV16 PsV was assessed by quantitative reverse transcription-PCR (qRT-PCR) for expression of HPV early region and HcRed mRNA, respectively, and normalized to infection by the cognate virus in the absence of peptide. Background signal determined with non-cognate primers was <0.01%.
To assess the effect of peptides on viral infection, 5×104 HeLa-S3 in 24-well plates were pretreated with peptides for one hour, followed by infection with wild-type HPV PsV at 37° C. at MOI of ˜1 or with mutant PsV containing an equivalent number of encapsidated reporter plasmids. Peptides were left in the medium for the duration of the experiment unless otherwise indicated. As a control, cells were incubated with the solution used to dissolve peptide. Cells were assessed by flow cytometry on a Stratedigm-13 flow cytometer to determine reporter protein expression at 48 h.p.i. unless otherwise indicated. In some experiments, peptides were added at various times after infection and were left in the medium for the duration of the experiment.

HPV18 PsV = assay: Peptide inhibition of HPV18 PsV infection of HeLa-S3 cells, flow cytometry for HcRed; type: cell-based; settings: 14 μM peptide, MOI of one, 48 h.p.i.
Source text: FIG. 18A (top) depicts sequences of L2 peptides. […] Amino acid substitutions in the CPP or RBS mutant peptides are shown in orange and blue, respectively. Bottom: RBS and flanking sequences of indicated HPV L2 proteins or DMT1-II. FIG. 18B depicts an inhibitory dose-response curve for P16/16 peptide. 5×10^4 HeLa-S3 in 24-well plates were pretreated with various concentrations of P16/16 for one hour prior to infection with HPV pseudovirus (PsV) at multiplicity of infection (MOI) of 1. Peptide was left in the medium for the duration of the experiment. Cells were assessed by flow cytometry to determine the fraction of cells expressing reporter protein HcRed at 48 hours post-infection (h.p.i.). […] Forty-eight h.p.i., cells were assessed by flow cytometry to determine fraction of cells expressing reporter protein HcRed. […] HaCaT keratinocytes were infected at MOI of 1 with HPV16 PsV in the presence and absence of 14 μM P16/16, and infectivity was assessed 48 h.p.i. by flow cytometry for HcRed fluorescence. […] Successful infection by HPV16 and HPV16 PsV was assessed by quantitative reverse transcription-PCR (qRT-PCR) for expression of HPV early region and HcRed mRNA, respectively, and normalized to infection by the cognate virus in the absence of peptide. Background signal determined with non-cognate primers was <0.01%. […]

TGN46 / HPV16 L1 = assay: Proximity ligation assay for L1 and TGN46 in peptide-treated infected cells; type: cell-based; settings: 14 μM, MOI of 200, 16 h.p.i.
Description: HeLa-S3 cells grown on glass coverslips for 16 hours were incubated for one hour with or without 14 μM P16/16, followed by mock-infection or infection with HPV16 PSV at MOI of 200. 8 and 16 h.p.i., cells were processed for PLA with anti-L1 antibody and an antibody recognizing EEA1 (FIG. 20A) or TGN46 (FIG. 20B). PLA was performed as in FIG. 19B. The PLA signal for EEA1/L1 was normalized to that of cells infected with HPV16 PsV in the absence of peptide at 8 h.p.i., while the TGN46/L1 signal was normalized to untreated cells at 16 h.p.i.
For the proximity ligation assay, after an hour incubation with peptides, HeLa-S3 cells were infected with wild-type PSV at MOI of 200 or mutant PsV containing the same number of reporter plasmid genomes. Infected cells were fixed at 8 or 16 h.p.i., permeabilized, and incubated with 1:100 dilutions of anti-L1 antibody and an antibody recognizing EEA1, TGN46, or VPS35. […] The nuclei were stained by using Abcam fluorescence mounting medium with DAPI and images were acquired by a Leica SP5 inverted fluorescence microscope. […] The images were processed by Fiji and quantitatively analyzed by BlobFinder software to measure total fluorescence intensity in each sample. The average fluorescence intensity per cell in each sample was normalized to the control sample as indicated in each experiment. […]

retromer (Vps35) = target: T1, retromer (Vps35) (Homo sapiens, UniProt O75436+Q96QK1); assay: Biotinylated peptide pull-down from HeLa S3 lysate, blot for Vps35; type: binding; settings: streptavidin pull-down
T1 construct: endogenous in cells; host or cells: HeLa S3 lysate (RIPA-MOPS buffer)
Description: For peptide pull-down experiments, N-terminal biotinylated L2 peptides (sequences shown in FIG. 2A) were purchased from ABClonal Science (Woburn, MA) at >95% purity. L2 wild-type was dissolved initially in 30% acetic acid and DMSO (˜70 μl each), and then dissolved in sterile deionized water with 0.01% sodium azide. L2-6A, L2-3R and L2-DM were initially solubilized in a small amount of DMSO (˜70-80 μl) and then dissolved in sterile deionized water with 0.01% sodium azide. Peptide stocks (5 mg/ml) were aliquoted and stored at −20° C. HeLa S3 cells plated in six-well plates were lysed at ˜80% confluency with 500 μl RIPA-MOPS buffer (20 mM morpholinepropanesulfonic acid [pH 7.0], 150 mM NaCl, 1% Nonidet P-40, 1 mM EDTA, 1% deoxycholic acid, 0.1% sodium dodecyl sulfate [SDS]) supplemented with protease inhibitors (1×HALT protease and phosphatase inhibitor cocktail (Thermo Scientific, Waltham, MA; #78443)). The lysate was centrifuged at 14,000 rpm for 20 min, and the supernatant was incubated with 10 μg of a biotinylated peptide for two h at 4° C. Fifty μl of streptavidin agarose beads slurry (Pierce, Rockford, IL; #20349) was added, and the mixture was gently rocked for 45 min at 4° C. […] Samples were analyzed by SDS-PAGE and immunoblotting with antibody recognizing Vps35 (Abcam, Cambridge, MA; ab57632).

## CC[C@H](C)[C@H](NC(=O)[C@@H](NC(=O)[C@H](Cc1ccc(O)cc1)NC(=O)[C@H](CCC(N)=O)NC(=O)[C@@H]1CCCN1C(=O)[C@H](CO)NC(=O)[C@@H](N)CS)[C@@H](C)O)C(=O)N[C@H](C(=O)N[C@@H](C)C(=O)N[C@@H](CC(=O)O)C(=O)N[C@@H](C)C(=O)NCC(=O)N[C@@H](CC(=O)O)C(=O)N[C@@H](Cc1ccccc1)C(=O)N[C@@H](Cc1ccc(O)cc1)C(=O)N[C@@H](CC(C)C)C(=O)N[C@@H](Cc1c[nH]cn1)C(=O)N1CCC[C@H]1C(=O)N[C@@H](CO)C(=O)N[C@@H](Cc1ccc(O)cc1)C(=O)N[C@@H](Cc1ccc(O)cc1)C(=O)N[C@@H](CCSC)C(=O)N[C@@H](CC(C)C)C(=O)N[C@@H](CCCNC(=N)N)C(=O)N[C@@H](CCCCN)C(=O)N[C@@H](CCCNC(=N)N)C(=O)N[C@@H](CCCNC(=N)N)C(=O)N[C@@H](CCCCN)C(=O)N[C@@H](CCCNC(=N)N)C(=O)O)[C@@H](C)CC [P16/16]
HPV16 pseudovirus (PsV); 14 μM peptide added at time of infection or at indicated h.p.i.
  time of peptide addition for effective inhibition: needed to be added during the first few hours of infection
HPV16 pseudovirus (PsV); 14 μM peptide left in medium, 48, 72, or 96 h.p.i.
  persistence of inhibition: at least 96 h.p.i.
HPV16 pseudovirus (PsV); 14 μM peptide, MOI of 1, 48 h.p.i.
  inhibition of HPV16 PsV infection: statistically significant (p<0.01) inhibition
HPV16 pseudovirus (PsV); peptide removed from the medium after 24 hours
  infection after removal of peptide: infection was not restored over the next three days
HPV16 pseudovirus (PsV); various concentrations of peptide, MOI of 1, 48 h.p.i.
  reduction in infection, dose-response: dose-dependent reduction in infection
HPV18 PsV
  inhibition of HPV18 PsV infection: potently inhibited infection
TGN46 / HPV16 L1
  TGN46/L1 PLA at 16 h.p.i.: inhibited the arrival of HPV in the TGN
Retromer (Vps35)
  retromer binding of L2 peptide in vitro: competent for retromer binding in vitro
